Columns and labels:
SSTR4 [1] = molecular target: T1, SSTR4 (Homo sapiens (Human), UniProt P31391); experiment: SSTR4 I-125 somatostatin competition binding assay (membranes from CHO-K1 cells overexpressing SSTR4); conditions: competition with I-125 labeled somatostatin; for IC50: read-out: SSTR4 Binding pIC50 (converted)
SSTR1 = SSTR1 (Homo sapiens (Human), UniProt P30872); experiment: SSTR1 I-125 somatostatin competition binding assay for selectivity versus SSTR4 (membranes from CHO-K1 cells overexpressing SSTR1); conditions: for SSTR1 Binding pIC50: competition with I-125 labeled somatostatin, CHO-K1 SSTR1 membranes;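 on all read-outs here: Filter-based radioligand binding, bound label counted by scintillation after 60 min incubation at room temperature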
SSTR4 [2] = molecular target: T1, SSTR4; experiment: Inhibition of forskolin stimulated cAMP in CHO-K1 cells overexpressing SSTR4; assay type: cell-based; conditions: for EC50: read-out: SSTR4 Activity pEC50 (converted)
Summary of the method: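 Read-out is a HTRF LANCE Ultra cAMP competition using Eu-labelled streptavidin and biotin-cAMP, incubated 60 min at room temperature. It followed a 30 min room-temperature exposure of Kreb's Ringer-washed cells to compound plus forskolin. Potency is expressed as pEC50.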

T1 sequence (P31391 whole entry): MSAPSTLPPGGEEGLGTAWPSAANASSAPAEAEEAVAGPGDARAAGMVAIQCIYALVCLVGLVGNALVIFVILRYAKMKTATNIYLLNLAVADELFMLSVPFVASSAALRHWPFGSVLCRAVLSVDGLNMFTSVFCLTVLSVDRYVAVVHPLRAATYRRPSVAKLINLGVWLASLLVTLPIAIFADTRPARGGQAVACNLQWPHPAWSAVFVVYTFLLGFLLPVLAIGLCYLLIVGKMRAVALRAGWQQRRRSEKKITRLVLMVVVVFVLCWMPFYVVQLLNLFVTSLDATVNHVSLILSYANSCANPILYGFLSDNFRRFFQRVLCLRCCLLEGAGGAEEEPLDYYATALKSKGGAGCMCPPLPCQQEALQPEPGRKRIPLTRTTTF
SSTR1, sequence (P30872 whole entry): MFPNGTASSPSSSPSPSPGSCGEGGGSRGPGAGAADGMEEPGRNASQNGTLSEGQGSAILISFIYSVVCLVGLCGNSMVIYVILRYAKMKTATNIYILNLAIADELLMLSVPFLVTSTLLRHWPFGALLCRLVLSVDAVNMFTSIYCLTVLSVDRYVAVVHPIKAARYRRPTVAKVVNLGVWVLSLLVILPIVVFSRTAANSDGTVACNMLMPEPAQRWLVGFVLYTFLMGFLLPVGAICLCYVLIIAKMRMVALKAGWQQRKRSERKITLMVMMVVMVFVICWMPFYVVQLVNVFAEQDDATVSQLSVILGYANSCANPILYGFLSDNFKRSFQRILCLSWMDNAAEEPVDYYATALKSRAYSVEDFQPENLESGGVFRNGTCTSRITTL

| IC50 (SSTR4 [1]) [nM] | IC50 (SSTR1) [nM] | EC50 (SSTR4 [2]) [nM] | Structure (SMILES) | SSTR4 Binding pIC50 (SSTR4 [1]) | SSTR1 Binding pIC50 (SSTR1) | SSTR4 Activity pEC50 (SSTR4 [2]) |
| --- | --- | --- | --- | --- | --- | --- |
| – | – | – | Cc1cccnc1OCC(C)(C)C(=O)N[C@@H]1CN(C)C[C@H]1c1cnn(C)c1C (relative stereo) [Example 26, trans-N-(4-(1,5-dimethyl-1H-pyrazol-4-yl)-1-methylpyrrolidin-3-yl)-2,2-dimethyl-3-((3-methylpyridin-2-yl)oxy)propanamide] | 7.3 | 6.1 | 8.6 |
| – | – | – | C[C@@H]1C[C@H](NC(=O)C(F)(F)COc2ncccc2C2CC2)CCN1 [Example 211, 3-((3-cyclopropylpyridin-2-yl)oxy)-2,2-difluoro-N-((2R,4R)-2-methylpiperidin-4-yl)propanamide] | 7.2 | 4.8 | 8.9 |
| – | – | – | Cc1nn(C)cc1[C@@H]1CN(C)C[C@H]1NC(=O)C(C)(C)COc1ncccc1C1CC1 (relative stereo) [Example 24, trans-3-((3-cyclopropylpyridin-2-yl)oxy)-N-(4-(1,3-dimethyl-1H-pyrazol-4-yl)-1-methylpyrrolidin-3-yl)-2,2-dimethylpropanamide] | 7.0 | 6.4 | 8.3 |
| – | – | – | CN1CCC(NC(=O)C(C)(C)COc2ncccc2OC(F)(F)F)CC1 [Example 92, 2,2-dimethyl-N-(1-methylpiperidin-4-yl)-3-((3-(trifluoromethoxy)pyridin-2-yl)oxy)propanamide] | 6.8 | 4.8 | 7.7 |
| – | – | – | CN1CC[C@@H](NC(=O)C(C)(C)COc2ccccc2C(F)(F)F)C1 [Example 65, (R)-2,2-dimethyl-N-(1-methylpyrrolidin-3-yl)-3-(2-(trifluoromethyl)phenoxy)propanamide] | 7.0 | 5.1 | 7.9 |
| – | – | – | C[C@H]1CNCC[C@@H]1NC(=O)C(F)(F)COc1ccccc1Cl [Example 216, 3-(2-chlorophenoxy)-2,2-difluoro-N-((3S,4S)-3-methylpiperidin-4-yl)propanamide] | 7.7 | 4.8 | 9.4 |
| – | – | – | CN1C[C@@H](NC(=O)C(C)(C)COc2ncccc2C(F)(F)F)[C@H](c2cnn(C)c2)C1 (relative stereo) [Example 19, trans-2,2-dimethyl-N-(1-methyl-4-(1-methyl-1H-pyrazol-4-yl)pyrrolidin-3-yl)-3-((3-(trifluoromethyl)pyridin-2-yl)oxy)propanamide] | 6.8 | 6.1 | 7.7 |
| 200 | 126 | 20 | CN1C[C@@H](NC(=O)C(C)(C)COc2ncccc2C2CC2)[C@H](c2ccc(C(F)(F)F)nc2)C1 (racemic) [Example 58, trans-3-((3-cyclopropylpyridin-2-yl)oxy)-2,2-dimethyl-N-(1-methyl-4-(6-(trifluoromethyl)pyridin-3-yl)pyrrolidin-3-yl)propanamide] | – | – | – |
| – | – | – | Cc1c([C@@H]2CN(C)C[C@H]2NC(=O)C(C)(C)COc2ncccc2OC(F)(F)F)cnn1C (relative stereo) [Example 30, trans-N-(4-(1,5-dimethyl-1H-pyrazol-4-yl)-1-methylpyrrolidin-3-yl)-2,2-dimethyl-3-((3-(trifluoromethoxy)pyridin-2-yl)oxy)propanamide] | 7.8 | 6.9 | 9.0 |
| – | – | – | CN1C[C@H](NC(=O)C(C)(C)COc2ncccc2OC(F)(F)F)C2(CC2)C1 [Example 150, (R)-2,2-dimethyl-N-(5-methyl-5-azaspiro[2.4]heptan-7-yl)-3-((3-(trifluoromethoxy)pyridin-2-yl)oxy)propanamide] | 7.3 | 5.6 | 8.2 |
| 1580 | 50100 | 126 | CN(C(=O)C(C)(C)COc1ncccc1C(F)(F)F)[C@@H]1CCNC[C@H]1c1ccccc1 (racemic) [Example 162, trans-N,2,2-trimethyl-N-(3-phenylpiperidin-4-yl)-3-((3-(trifluoromethyl)pyridin-2-yl)oxy)propanamide] | – | – | – |
| – | – | – | CN1CCC(NC(=O)C(C)(C)COc2ncccc2C(F)(F)F)CC1 [Example 41, 2,2-dimethyl-N-(1-methylpiperidin-4-yl)-3-((3-(trifluoromethyl)pyridin-2-yl)oxy)propanamide] | 6.4 | 4.2 | 7.4 |
| – | – | – | C[C@@H]1C[C@H](NC(=O)C(C)(C)COc2ncccc2OC(F)(F)F)CCN1C [Example 179, N-((2R,4R)-1,2-dimethylpiperidin-4-yl)-2,2-dimethyl-3-((3-(trifluoromethoxy)pyridin-2-yl)oxy)propanamide] | 7.4 | 4.8 | 8.1 |
| – | – | – | CN1CC[C@@H](NC(=O)C(C)(C)COc2ccccc2Cl)C1 [Example 68, (R)-3-(2-chlorophenoxy)-2,2-dimethyl-N-(1-methylpyrrolidin-3-yl)propanamide] | 6.8 | 4.6 | 7.5 |
| 79.4 | 7940 | 12.6 | CC[C@@H]1CN(C)CC[C@H]1NC(=O)C(C)(C)COc1ncccc1C (racemic) [Example 127, trans-N-(3-ethyl-1-methylpiperidin-4-yl)-2,2-dimethyl-3-((3-methylpyridin-2-yl)oxy)propanamide] | – | – | – |
| – | – | – | CN1CC[C@@H](NC(=O)C(C)(C)COc2ncccc2C2CC2)C1 [Example 53, (R)-3-((3-cyclopropylpyridin-2-yl)oxy)-2,2-dimethyl-N-(1-methylpyrrolidin-3-yl)propanamide] | 6.6 | 4.6 | 7.4 |
| – | – | – | Cc1ccccc1[C@@H]1CNCC[C@H]1NC(=O)C(C)(C)COc1ncccc1C(F)(F)F (relative stereo) [Example 157, 2,2-dimethyl-N-(trans-3-(o-tolyl)piperidin-4-yl)-3-((3-(trifluoromethyl)pyridin-2-yl)oxy)propanamide] | 8.8 | 7.0 | 9.9 |
| – | – | – | CN1CC[C@H](NC(=O)C(C)(C)COc2ncccc2OC(F)(F)F)[C@@H](F)C1 [Example 124, N-((3S,4S)-3-fluoro-1-methylpiperidin-4-yl)-2,2-dimethyl-3-((3-(trifluoromethoxy)pyridin-2-yl)oxy)propanamide] | 7.4 | 5.1 | 7.6 |
| – | – | – | Cc1cccnc1OCC(C)(C)C(=O)N[C@@H]1CCN(C)C[C@H]1C (relative stereo) [Example 17, trans-N-(1,3-dimethylpiperidin-4-yl)-2,2-dimethyl-3-((3-methylpyridin-2-yl)oxy)propanamide] | 6.7 | 4.7 | 7.7 |
| – | – | – | Cc1nn(C)cc1[C@@H]1CN(C)C[C@H]1NC(=O)C(C)(C)COc1ncccc1C(F)(F)F (relative stereo) [Example 25, trans-N-(4-(1,3-dimethyl-1H-pyrazol-4-yl)-1-methylpyrrolidin-3-yl)-2,2-dimethyl-3-((3-(trifluoromethyl)pyridin-2-yl)oxy)propanamide] | 7.0 | 6.4 | 8.3 |

Reference: patent US11045457B2, “Piperidinyl-3-(aryloxy)propanamides and propanoates” (priority 2018, dated 2021)
